Measured values published in paper PMC7262662 (BioMed Research International, 2020).
Marks after values point to notes of the source that are not given here.

Assays:
[1] = test system: CrFK cells; test: Cellular uptake study by fluorescence microscopy; type: cell-based, feline; conditions: 20 μM, examined at 1, 3 and 6 h
Protocol: The cellular uptake of curcumin and the Cur-CS nanoparticles by CrFK cells was examined using the fluorescence method. […] The plates were incubated at 37°C in an incubator with 5% CO2 for 24 h. […] At these intervals, the cells were rinsed three times with PBS. […] The dried coverslips were mounted on a glass slide, and images were captured by an Olympus IX81 inverted fluorescence microscope (Olympus, Japan) under a 535–600 nm filter.

[2] = Cytotoxicity assay (MTT); type: cell-based, feline; conditions: cat
Protocol: (§1) CrFK cells at a density of 2 × 10^4 were incubated in 96-well culture plates for 24 h at 37°C. Then, the cells were washed with PBS. […] A colorimetric MTT assay was performed. Briefly, 20 μL 5 mg/mL MTT solution was added to each well and incubated for 2 h at 37°C. Then, 170 μL solution was removed from each well; subsequently, 100 μL DMSO was added to dissolve the formazan crystals. The plate was then incubated for 1 h before optical density (OD) measurement at 570 nm using a plate reader (BioTek EL800, BioTek, Winooski, VT, USA).
(§2) The relative cell viability (%) of CrFK cells after treatment was calculated using the formula (OD570 (treated cells)/OD570 (control cells)) × 100. The median cytotoxic concentration (CC50) is the concentration that reduces the absorbance of treated cells to 50% with respect to the cell controls. The CC50 of the compounds was calculated by regression analysis in SPSS software version 22.0 (IBM, Chicago, IL, USA).

[3] = test system: CrFK cells; test: Cytotoxicity assay (MTT); type: cell-based, feline; conditions: CrFK cells; MTT; tested 1 to 250 μg/mL
Protocol: as §1, §2

[4] = test system: FIPV; test: Antiviral assay in cotreatment: viral RNA quantification by qPCR; type: cell-based, feline infectious peritonitis virus; conditions: for % log10 copy number decrement: compared to FIPV sample; for 3′UTR log10 copy number: cotreatment
Protocol: CrFK cells at a density of 1 × 10^5 were cultured in medium in 24-well plates for 24 h at 37°C. […] The culture supernatant was centrifuged at 700 g for 10 min, and the virus-containing supernatant was collected and used for virus quantification.
Viral RNA was extracted from the collected supernatant using a Viral Nucleic Acid Extraction Kit II (Geneaid, New Taipei City, Taiwan) following the protocol provided by the manufacturer. Cellular total RNA was extracted from the CrFK cell pellet using the RNeasy® Mini Kit, which includes DNase treatment (QIAGEN, Germantown, MD, USA). The concentration and purity of the extracted RNA were quantified using the Eppendorf BioSpectrometer® kinetic (Eppendorf, Hamburg, Germany). The extracted RNA was stored at -80°C until further use.
Complementary DNA (cDNA) was prepared, and viral mRNA was quantified using quantitative PCR (qPCR) employing previously described methods. The qPCR results were quantified using the absolute quantification approach, where a standard curve of a serial dilution of viral cDNA template was plotted before the quantification.

[5] = test system: FIPV-infected cells; test: Feline-specific magnetic bead-based multiplex immunoassay; type: cell-based; conditions: 20 μM
Protocol: The culture supernatant was centrifuged and used for the bead-based multiplex immunoassay, while the attached cells were trypsinised and collected for the cellular proinflammatory cytokine mRNA expression study.
Nineteen immune-related proteins including cytokines, chemokines, growth factors, and other immunologically active proteins were measured using a commercially available feline-specific magnetic bead-based multiplex immunoassay. The Feline Cytokine/Chemokine Magnetic Bead Panel Premixed (FCYTOMAG-20K-PMX; EMD Millipore, Billerica, MA, USA) was purchased and used according to the manufacturer's recommendation. Quality control samples, standards, and sets of culture sample were run on plates in duplicate. Prior to measurement, the culture samples were concentrated using Concentrator 5301 (Eppendorf, Hamburg, Germany). The plates were evaluated using MAGPIX® (Luminex, Austin, TX, USA); subsequently, the results were analysed using MILLIPLEX Analyst v.5.1 (EMD Millipore, Billerica, MA, USA).

Structure (SMILES): COc1cc(/C=C/C(=O)CC(=O)/C=C/c2ccc(O)c(OC)c2)ccc1O [Curcumin]
- Cellular uptake: time at which green fluorescence was first observed [1]: 3 h
- CC50 at 24 h [2]: 69.9 µM
- CC50 at 48 h [2]: 59.1 µM
- CC50 at 72 h [2]: 35.5 µM
- Concentration tolerated by the cells without cytotoxic effect [3]: 15000 ng/mL
- % log10 copy number decrement ([4]; 48 h, 5 μM): 27.54 ± 3.28^b %
- 3′UTR log10 copy number ([4]; 48 h, 5 μM, FIPV sample 11.86 ± 0.06): 11.72 ± 0.06^d
- % log10 copy number decrement ([4]; 48 h, 10 μM): 40.50 ± 5.41^c %
- 3′UTR log10 copy number ([4]; 48 h, 10 μM, FIPV sample 11.86 ± 0.06): 11.63 ± 0.01^cd
- % log10 copy number decrement ([4]; 48 h, 20 μM): 59.46 ± 2.45^e %
- % log10 copy number decrement ([4]; 48 h, 20 μM, listed as curcumin): 59.46 ± 2.45%
- 3′UTR log10 copy number ([4]; 48 h, 20 μM, FIPV sample 11.86 ± 0.06): 11.46 ± 0.05^b
- % log10 copy number decrement ([4]; 72 h, 5 μM): 10.70 ± 5.47^b %
- 3′UTR log10 copy number ([4]; 72 h, 5 μM, FIPV sample 12.00 ± 0.03): 11.95 ± 0.01^cd
- % log10 copy number decrement ([4]; 72 h, 10 μM): 26.92 ± 5.93^cd %
- 3′UTR log10 copy number ([4]; 72 h, 10 μM, FIPV sample 12.00 ± 0.03): 11.86 ± 0.06^abc
- % log10 copy number decrement ([4]; 72 h, 20 μM): 26.38 ± 2.75^c %
- 3′UTR log10 copy number ([4]; 72 h, 20 μM, FIPV sample 12.00 ± 0.03): 11.87 ± 0.04^abc
- TNFα concentration ([5]; 24 h, infected cells untreated 38.13 ± 0.00): 37.40 ± 1.04^b pg/mL
- IL-18 concentration ([5]; 24 h, infected cells untreated 60.62 ± 3.50): 47.92 ± 1.73^ab pg/mL
- KC concentration ([5]; 24 h, infected cells untreated 80.76 ± 3.71): 58.52 ± 15.92^bc pg/mL
- SDF-1 concentration ([5]; 24 h, infected cells untreated 161.3 ± 7.1): 163.5 ± 3.1^b pg/mL
- PDGF-BB concentration ([5]; 24 h, infected cells untreated 445.6 ± 18.7): 446.0 ± 0.0^b pg/mL
- RANTES concentration ([5]; 24 h, infected cells untreated 868.6 ± 62.1): 746.7 ± 18.3^c pg/mL
- MCP-1 concentration ([5]; 24 h, infected cells untreated 934.8 ± 0.0): 934.8 ± 0.0^c pg/mL
- IL-8 concentration ([5]; 24 h, infected cells untreated 2078.0 ± 138.6): 1509.5 ± 16.3^c pg/mL
- TNFα concentration ([5]; 48 h, infected cells untreated 46.83 ± 6.11): 35.18 ± 2.09^a pg/mL
- IL-6 concentration ([5]; 48 h, infected cells untreated 108.06 ± 4.85): 54.75 ± 6.34^∗ pg/mL
- SDF-1 concentration ([5]; 48 h, infected cells untreated 158.2 ± 0.9): 84.2 ± 2.9^a pg/mL
- KC concentration ([5]; 48 h, infected cells untreated 266.1 ± 35.2): 186.4 ± 14.2^c pg/mL
- PDGF-BB concentration ([5]; 48 h, infected cells untreated 440.5 ± 43.1): 354.2 ± 30.0^a pg/mL
- MCP-1 concentration ([5]; 48 h, infected cells untreated 934.2 ± 57.9): 735.5 ± 34.2^a pg/mL
- IL-8 concentration ([5]; 48 h, infected cells untreated 1660.0 ± 196.6): 1074.5 ± 9.2^b pg/mL
- RANTES concentration ([5]; 48 h, infected cells untreated 2317.0 ± 355.0): 618.6 ± 70.8^b pg/mL
